Laboratory results taken from ChEMBL document CHEMBL1201862, “PubChem BioAssay data set” (2004).
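Dose response: 5 concentrations. Exposure: 48 h. Format: 96-well plates. Endpoint: linear interpolation; highest concentration if not reached. The concentration for 50% growth inhibition is given as GI50.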 Calls of active or inactive are those of the source. Cut-off read from the data, not from the text of the source: active = GI50 up to about 1.1 µM and inactive = higher.

Key:
Experiment in all cases: growth of human tumour cells (NCI), 48 h
MOLT-4 = tested on: MOLT-4
RPMI-8226 = tested on: RPMI-8226
UACC-62 = tested on: UACC-62
ACHN = tested on: ACHN
SK-MEL-28 = tested on: SK-MEL-28
U-251 = tested on: U-251
TK-10 = tested on: TK-10
CAKI-1 = tested on: CAKI-1
IGROV-1 = tested on: IGROV-1
OVCAR-3 = tested on: OVCAR-3
SNB-75 = tested on: SNB-75
KM12 = tested on: KM12
SK-MEL-2 = tested on: SK-MEL-2
COLO 205 = tested on: COLO 205
HCT-15 = tested on: HCT-15
OVCAR-8 = tested on: OVCAR-8
A498 = tested on: A498
OVCAR-4 = tested on: OVCAR-4
Hs-578T = tested on: Hs-578T
MDA-MB-435 = tested on: MDA-MB-435

SMILES | GI50 (MOLT-4) | GI50 (RPMI-8226) | GI50 (UACC-62) | GI50 (ACHN) | GI50 (SK-MEL-28) | GI50 (U-251) | GI50 (TK-10) | GI50 (CAKI-1) | GI50 (IGROV-1) | GI50 (OVCAR-3) | GI50 (SNB-75) | GI50 (KM12) | GI50 (SK-MEL-2) | GI50 (COLO 205) | GI50 (HCT-15) | GI50 (OVCAR-8) | GI50 (A498) | GI50 (OVCAR-4) | GI50 (Hs-578T) | GI50 (MDA-MB-435)
Nc1ncnc2c(C3OC(CO)C(O)C3O)scc12 (configuration not stated) | 0.0767 µM (active) | 0.00222 µM (active) | 0.00321 µM (active) | 0.0877 µM (active) | 0.873 µM (active) | 3.78 µM (inactive) | 0.191 µM (active) | < 0.01 µM (active) | 0.513 µM (active) | 0.00241 µM (active) | 0.459 µM (active) | < 0.001 µM (active) | 0.0431 µM (active) | 0.026 µM (active) | 0.00278 µM | 0.00179 µM (active) | 0.0316 µM (active) | 0.0468 µM (active) | – | –
CSC(SC)=C(C(=O)O)P(=O)(O)O | > 100 µM (inactive) | – | > 100 µM (inactive) | > 100 µM (inactive) | > 100 µM (inactive) | – | > 100 µM (inactive) | > 100 µM (inactive) | > 100 µM (inactive) | > 100 µM (inactive) | – | > 100 µM (inactive) | > 100 µM (inactive) | > 100 µM (inactive) | > 100 µM | > 100 µM (inactive) | > 100 µM (inactive) | > 100 µM (inactive) | > 100 µM (inactive) | –
COc1cc(/C=C2/C(=O)N/C(=N\C(C)=O)N2C)ccc1OC(C)=O | > 100 µM (inactive) | – | > 100 µM (inactive) | > 100 µM (inactive) | > 100 µM (inactive) | > 100 µM (inactive) | 47.9 µM (inactive) | > 100 µM (inactive) | > 100 µM (inactive) | > 100 µM (inactive) | > 100 µM (inactive) | > 100 µM (inactive) | > 100 µM (inactive) | > 100 µM (inactive) | > 100 µM | > 100 µM (inactive) | – | > 100 µM (inactive) | – | > 100 µM (inactive)
CCOC(=O)c1sc2nc(SC)nc(Nc3ccc4c(c3)OCCO4)c2c1N | 8.05 µM (inactive) | 12.6 µM (inactive) | 11.4 µM (inactive) | 7.28 µM (inactive) | > 100 µM (inactive) | 5.87 µM (inactive) | 15.2 µM (inactive) | 22.9 µM (inactive) | 29.9 µM (inactive) | 13.5 µM (inactive) | – | 44.6 µM (inactive) | 15 µM (inactive) | 5.45 µM (inactive) | – | 5.12 µM (inactive) | 11.9 µM (inactive) | 10.7 µM (inactive) | – | 18 µM (inactive)
Cc1c(N2C(=O)/C(=C/C=C/c3ccccc3)N=C2c2ccccc2)c(=O)n(-c2ccccc2)n1C | 14.9 µM (inactive) | 19.1 µM (inactive) | 16.4 µM (inactive) | 17.8 µM (inactive) | – | 16.8 µM (inactive) | 32.9 µM (inactive) | 37.8 µM (inactive) | 16.3 µM (inactive) | 20.4 µM (inactive) | 3.78 µM (inactive) | 25.5 µM (inactive) | 21.8 µM (inactive) | 15.5 µM (inactive) | 5.45 µM | 26.1 µM (inactive) | – | 17.8 µM (inactive) | – | 17 µM (inactive)
C/N=c1\ss/c(=N\C(=S)N(C)C)n1C1CCCCC1 | > 31.6 µM (inactive) | > 100 µM (inactive) | > 31.6 µM (inactive) | > 31.6 µM (inactive) | > 31.6 µM (inactive) | > 31.6 µM (inactive) | > 31.6 µM (inactive) | > 31.6 µM (inactive) | > 31.6 µM (inactive) | > 31.6 µM (inactive) | > 10 µM (inactive) | > 31.6 µM (inactive) | > 31.6 µM (inactive) | > 31.6 µM (inactive) | > 31.6 µM | > 31.6 µM (inactive) | > 31.6 µM (inactive) | > 31.6 µM (inactive) | – | –
Oc1cc(Cl)ncn1 | > 100 µM (inactive) | > 100 µM (inactive) | > 100 µM (inactive) | > 100 µM (inactive) | > 100 µM (inactive) | > 100 µM (inactive) | > 100 µM (inactive) | > 100 µM (inactive) | > 100 µM (inactive) | > 100 µM (inactive) | > 100 µM (inactive) | > 100 µM (inactive) | > 100 µM (inactive) | > 100 µM (inactive) | > 100 µM | > 100 µM (inactive) | > 100 µM (inactive) | > 100 µM (inactive) | – | –
CC(=O)n1nc(-c2ccccc2)n(/N=C/c2ccc([N+](=O)[O-])cc2)c1=O | > 100 µM (inactive) | > 100 µM (inactive) | > 100 µM (inactive) | > 100 µM (inactive) | > 100 µM (inactive) | > 100 µM (inactive) | > 100 µM (inactive) | > 100 µM (inactive) | > 100 µM (inactive) | > 100 µM (inactive) | > 100 µM (inactive) | > 100 µM (inactive) | > 100 µM (inactive) | > 100 µM (inactive) | > 100 µM | 98.2 µM (inactive) | > 100 µM (inactive) | 41.3 µM (inactive) | – | > 100 µM (inactive)
Cc1c(C(=O)CC(=O)C(=O)NC2C3CC4CC(C3)CC2C4)[n+]([O-])c2ccccc2[n+]1[O-] (configuration not stated) | > 100 µM (inactive) | > 100 µM (inactive) | > 100 µM (inactive) | > 100 µM (inactive) | > 100 µM (inactive) | > 100 µM (inactive) | > 100 µM (inactive) | > 100 µM (inactive) | > 100 µM (inactive) | 24 µM (inactive) | > 100 µM (inactive) | > 100 µM (inactive) | > 100 µM (inactive) | > 100 µM (inactive) | > 100 µM | > 100 µM (inactive) | > 100 µM (inactive) | > 100 µM (inactive) | – | –
NNC(=O)/C(NC(=O)c1ccccc1)=C(\N)c1ccc(Cl)cc1 | 28.3 µM (inactive) | 73.5 µM (inactive) | > 100 µM (inactive) | > 100 µM (inactive) | > 100 µM (inactive) | > 100 µM (inactive) | > 100 µM (inactive) | > 100 µM (inactive) | > 100 µM (inactive) | > 100 µM (inactive) | > 100 µM (inactive) | > 100 µM (inactive) | > 100 µM (inactive) | > 100 µM (inactive) | > 100 µM | > 100 µM (inactive) | 80.5 µM (inactive) | > 100 µM (inactive) | – | –
CC1CN1c1c(C(=O)/C=C/c2ccc(F)cc2)c(-c2ccccc2)nn(C)c1=O (configuration not stated) | 14.3 µM (inactive) | 9.46 µM (inactive) | 13.6 µM (inactive) | 16.3 µM (inactive) | 17.5 µM (inactive) | 15.5 µM (inactive) | 17.2 µM (inactive) | > 10 µM (inactive) | 19.8 µM (inactive) | 15.4 µM (inactive) | 14.3 µM (inactive) | 15.7 µM (inactive) | 18.2 µM (inactive) | 18.5 µM (inactive) | > 10 µM | 14.2 µM (inactive) | > 10 µM (inactive) | 16.5 µM (inactive) | – | –
CC(C)(c1ccc(OC#N)cc1)c1ccc(OC#N)cc1 | > 100 µM (inactive) | > 52.6 µM (inactive) | > 100 µM (inactive) | > 100 µM (inactive) | > 100 µM (inactive) | > 68.5 µM (inactive) | > 100 µM (inactive) | > 100 µM (inactive) | > 100 µM (inactive) | > 100 µM (inactive) | > 52.5 µM (inactive) | > 100 µM (inactive) | > 100 µM (inactive) | > 46.6 µM (inactive) | 20.3 µM | > 100 µM (inactive) | > 100 µM (inactive) | > 100 µM (inactive) | – | –
